Test results taken from article PMC9738927, “A Newly Identified Monoterpenoid-Based Small Molecule Able to Support the Survival of Primary Cultured Dopamine Neurons and Alleviate MPTP-Induced Toxicity In Vivo” (Molecules, 2022).

Columns and labels:
[1] = system: MPTP-lesioned C57BL/6 mice; assay: DA and DOPAC levels in midbrain and striatum by HPLC-ED after MPTP lesion; format: in vivo
Method: Neurochemical analyses via HPLC-ED were conducted as described before. Microdissected samples of the striatum (ST) and midbrain were homogenized in 300 and 400 µL of cold 0.6 M HClO4, respectively, using a motor-driven grinder (Z359971, Sigma-Aldrich, USA) and the homogenate was spun for 15 min at 12,000 rpm (+4 °C). The pellet was diluted in 1 mL of 0.1 M NaCl and used for protein quantitation by Bradford (Bio Rad, USA) according to the manufacturer’s protocol. The clear supernatant was diluted twice with pure water and used for assay of DA and […] (DOPAC) by HPLC on Luna C18(2) column (5 μm particle size, L × I.D. 75 × 4.6 mm, Phenomenex, Torrance, CA, USA) with electrochemical detection (750 mV, DECADE II™ Electrochemical Detector; Antec, The Netherlands). The standard mixes containing 1, 2, and 3 ng of DA and DOPAC were repeatedly assayed throughout the entire procedure and used to plot the calibration curves for each substance. The areas of peaks were estimated using LabSolution LG/GC software version 5.54 (Shimadzu Corporation, Japan) and calibrated against the calibrated curves for corresponding standards. The contents of DA and DOPAC were expressed nanogram (ng) per milligram (mg) of protein assayed by Bradford.

[2] = Pharmacokinetics in whole blood after a single oral dose (HPLC-MS/MS); format: in vivo, CD1 IGS mice; settings: single oral 10 mg/kg
Method: Six CD1 IGS mice were administered orally with the compound PA96 in Tween 80 at doses of 10 mg/kg. Blood was collected from the tail after the amputation of a small distal piece. Time points were 5, 10, 30, 60, and 120 min after injection. Experimental blood samples were transferred into tubes for the precipitation of blood proteins with a mixture of zinc sulfate and methanol (2:8, v/v). A set of calibrators were prepared in advance, followed by their preparation protocol, and analyzed by HPLC-MS/MS for standard comparison. The calibration curve was built in the range of 25–2000 ng/mL. According to the signal-concentration profile, the content of PA96 in the experimental blood samples at each time point was calculated.
The stock solution of PA96 (1.0 mg/mL) was prepared by dissolving an accurately weighed amount of the substance in 100% methanol. To obtain a set of working solutions with concentrations of 0.01, 0.05, 0.1, 0.25, 0.5, 1, 2.5, 5, 7.5, 10, 15, and 20 µg/mL, the stock solution of PA96 was diluted with methanol. Calibration standards (calibrators) were prepared by mixing 10 μL of each individual working solution and 90 μL of mouse whole blood. Samples were stirred gently on an orbital shaker at 1000 rpm and left at 4 °C for 1 h for equilibration. The stock solution of IS with a concentration of 1.0 mg/mL was prepared by dissolving a weighed amount of 2-adamantylamine hydrochloride in pure methanol. The solution for the protein precipitation procedure was a mixture of 2 parts of 0.2 M aqueous solutions of zinc sulfate per 8 parts of a solution of IS in methanol with a concentration of 10 µg/mL. All solutions were stored at −18 °C and brought to their ambient temperature before use.
An aliquot of 10 µL of each whole blood sample was placed into an Eppendorf microtube (1.5 mL), then the precipitation solution of 50 µL was added to each tube. All samples were vortexed for 20–30 s and then centrifuged (Eppendorf MiniSpin, Eppendorf, Germany) for 10 min at 13,400 rpm. The supernatant was transferred into a chromatographic vial and analyzed.
The LC-MS/MS analysis was performed using an LC-20AD Prominence chromatograph equipped with an autosampler thermostated at +10 °C (Shimadzu, Japan) and a 3200 QTRAP mass spectrometer equipped with an ESI source (AB SCIEX, USA). Separation was achieved on a ProntoSil-120-5-C18 AQ column (2.0 × 75 mm, 5 μm particles, (EcoNova, Novosibirsk, Russia)) thermostated at +35 °C. The mobile phase was composed of water containing 0.1% formic acid (eluent A) and methanol containing 0.1% formic acid (eluent B). The gradient elution program was as follows: 0 min-10% (B); 0.5 min-10% (B); 7 min-98% (B); 9 min-98% (B); the flow rate was 200 μL/min.
The mass spectrometer was operated using multiple reaction monitoring (MRM) in positive ion mode. Ionization was conducted by applying a voltage of 5500 V, and the source temperature was set at +350 °C. For the analyte and IS, the optimized source parameters, viz. CUR (curtain gas), GS1 (Gas 1), and GS2 (Gas 2) were set at 20 psi. The CAD (collisionally activated dissociation) gas was nitrogen, and the parameter was set as high. The parameters of PA96, viz. MRM transitions, declustering potentials (DP), collision energies (CE), and collision cell exit potentials (CXP) are presented in Table 3. The dwell time was 100 msec. Analyst 1.6.2 software (AB SCIEX, USA) was used for instrument control and data acquisition, and MultiQuant 2.1 software (AB SCIEX, USA) was used for quantification. To calculate the main pharmacokinetic parameters, the Microsoft Excel–PKSolver was used.

[3] = CD1 IGS, mouse, whole blood, blood

For `C=C(C)[C@@H]1CC=C(C)[C@@H](Sc2nc[nH]n2)[C@@H]1O` [PA96, (1R,2R,6S)-2-(1H-1,2,4-triazol-3-ylthio)-3-methyl-6-(prop-1-en-2-yl)cyclohex-3-enol], the “MPTP-induced reduction in DA level in the midbrain” value [1] was “tended to alleviate”, the “DA and DOPAC concentrations in ST or midbrain” value ([1]; 10 mg/kg) was “did not affect” and the half-life ([2]; CD1 IGS, mouse, whole blood, po, 10 mg/kg, blood) was about 24 min. It also gave an AUC0-t [2, 3] of 278 ng·h/mL, a Cmax [2, 3] of 550 ng/mL and a Tmax [2, 3] of 5 min. The AUC(0-inf) ([2]; CD1 IGS, mouse, whole blood, blood, read-out: AUC0-inf_obs) was 290 ng·h/mL, the MRT inf ([2]; CD1 IGS, mouse, whole blood, blood, read-out: MRT0-inf_obs (converted)) was 29.7 min and the Cl/F_obs ([2]; blood) was “(5.8 ± 0.6) × 10^−4 (mg/kg)/(ng/mL)/min”. The Vz/F_obs ([2]; blood) was “(18.9 ± 0.6) × 10^−3 (ml/kg)/(ng/mL)” and the “time at which the minimum detectable concentration in blood was observed” value [2] was 1 h.
